Assay results from patent publication US9592407B2, “Pharmaceutical composition and uses thereof” (CHANG GUNG MEMORIAL HOSPITAL, LINKOU, priority 2012, dated 2017).
Read-outs that look alike come from different tables or passages of the source.

How the values were obtained:
HeLa (Cervical) = test: Combination drug treatment, Combination Index and IC50 (Example 6); type: cell-based
Source text: (§1) Chou: Theoretical Basis, Experimental Design, and Computerized Simulation of Synergism and Antagonism in Drug Combination Studies, Pharmacological Reviews.

Mahlavu (HCC) = test: as above; type: cell-based, Human
Source text: as §1

NPM = test: Induction of NPM expression by cellular stresses (Example 2); type: cell-based, Human; details: HCC cell lines following exposure; cisplatin 5.5, 69, 6.4 μg/ml, doxorubicin 1.4, 8.8, 5 μg/ml
Source text: (§2) A subset of NPM was translocated to cytoplasm 6 hr after UV irradiation (indicated by an arrow in the right panel).
(§3) The expression of β-actin was used as the loading control. Simultaneous induction of BAX (pro-apoptosis) and NPM (anti-apoptosis) of cells upon cellular stress represents counteracting mechanisms regulating apoptosis versus survival response.

BAX [1] = test: Induction of BAX expression by cellular stresses (Example 2); type: cell-based, Human; details: all three HCC cell lines following treatment
Source text: as §2, §3

BAX [2] = test: BAX mitochondrial translocation and oligomerization in liver cancer cells (Example 4); type: cell-based, Human; details: Hep3B and Mahlavu cells
Source text: FIG. 6A illustrates the expression of NPM and BAX in the cytosol and the mitochondria of Mahlavu liver cancer cells following UV irradiation with or without transfected siRNA targeting NPM (NPM) or siRNA with scrambled sequences (NS). FIG. 6B illustrates the effect of siNPM and siNS on BAX dimmers (indicated with an asterisk) and BAX oligomers (twin-asterisk) in the mitochondria or the nuclei.
FIG. 6A illustrates cytoplasmic NPM increased after UV irradiation, whereas BAX increased in the cytosol and mitochondria after UV irradiation. Suppressing NPM expression by siRNA reduced the cytosolic BAX, while mitochondrial BAX level increased. […] Prohibitin (PHB) and glyceraldehyde 3-phosphate dehydrogenase (GAPDH) were used as the markers for mitochondrial and cytosolic components, respectively. Similar result for mitochondrial BAX enhancement was observed by inhibiting NPM with chemotherapeutic agents, such as staurosporin in Hep3B and Mahlavu cells.
A non-reducing condition for preparing cellular proteins was employed to validate the above findings.

[3] = concentration of the named drug in Lapatinib + NSC348884 combination therapy, 72 hours, read-out: IC50 Combination Therapy
[4] = monotherapy, 72 hours after exposure, read-out: IC50 Monotherapy
[5] = Homo sapiens, concentration of the named drug in Lapatinib + NSC348884 combination therapy, 72 hours, read-out: IC50 Combination Therapy
[6] = Homo sapiens, monotherapy, 72 hours after exposure, read-out: IC50 Monotherapy

Cc1ccc2nc(CN(CCN(Cc3nc4ccc(C)cc4[nH]3)Cc3nc4ccc(C)cc4[nH]3)Cc3nc4ccc(C)cc4[nH]3)[nH]c2c1 [NSC348884]
IC50 (HeLa (Cervical); [3]): 4.92 µM
IC50 (HeLa (Cervical); [4]): 6.24 µM
IC50 (Mahlavu (HCC); [3]): 3.84 µM
IC50 (Mahlavu (HCC); [4]): 6.15 µM

N.N.[Cl][Pt][Cl] [cisplatin]
NPM expression (NPM): upregulated
BAX expression (BAX [1]): increased

CS(=O)(=O)CCNCc1ccc(-c2ccc3ncnc(Nc4ccc(OCc5cccc(F)c5)c(Cl)c4)c3c2)o1 [Lapatinib]
IC50 (HeLa (Cervical); [5]): 18.4 µM
IC50 (HeLa (Cervical); [6]): 20.8 µM
IC50 (Mahlavu (HCC); [5]): 14.4 µM
IC50 (Mahlavu (HCC); [6]): 12.8 µM

COc1cccc2c1C(=O)c1c(O)c3c(c(O)c1C2=O)C[C@@](O)(C(=O)CO)C[C@@H]3O[C@H]1C[C@H](N)[C@H](O)[C@H](C)O1 [doxorubicin]
NPM expression (NPM): upregulated
BAX expression (BAX [1]): increased

CN[C@@H]1C[C@H]2O[C@@](C)([C@@H]1OC)n1c3ccccc3c3c4c(c5c6ccccc6n2c5c31)C(=O)NC4 [staurosporin]
mitochondrial BAX (BAX [2]): enhancement
